≈ marks a conversion by molar mass, not a printed value.
Columns and labels:
Assay in all cases: in vitro antibacterial evaluation, MIC by broth dilution
Format in all cases: cell-based
[1] = tested on: Escherichia coli; conditions: 18 hours at 35° C.
[2] = tested on: Enterococcus sp.; conditions: broth dilution, 18 hours at 35° C.
Method in brief: (§1)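 Inoculum 5×10^5 CFU/mL; concentrations 64 to 0.06 μg/mL; MIC defined as lowest inhibitory level. Conducted by broth dilution under NCCLS guidelines.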

[3] = tested on: Streptococcus sp.; conditions: broth dilution, 18 hours at 35° C.
Method in brief: as §1

[4] = tested on: Staphylococcus sp.; conditions: broth dilution, 18 hours at 35° C.
Method in brief: as §1

`COc1ccc2cc(COC3C(OC4C(CO)OC(Oc5ccc(CC6NC(=O)C(C(C)c7ccccc7)NC(=O)CNC(=O)C(CO)NC(=O)C(CC7CNC(=N)N7C7OC(CO)C(O)C(O)C7O)NC(=O)C(CC7CNC(=N)N7)NC6=O)cc5)C(O)C4O)OC(CO)C(O)C3O)ccc2c1` (stereo not shown) [Example 245c] was tested, and the “MIC Escherichia coli (ATCC 25922)” value [1] was greater than 128 µg/mL, the “MIC Escherichia coli (GC 4559)” value [1] was greater than 128 µg/mL and the “MIC Escherichia coli (GC 4560)” value [1] was 32 µg/mL (≈ 22.3 µM). The “MIC Enterococcus avium (GC 4558)” value [2] was greater than 128 µg/mL, the “MIC Enterococcus faecalis (ATCC 29212)” value [2] was greater than 128 µg/mL and the “MIC Enterococcus faecalis (GC 2242)” value [2] was greater than 128 µg/mL. For the same compound, the “MIC Enterococcus faecalis (GC 2691)” value [2] was greater than 128 µg/mL, the “MIC Enterococcus faecalis (GC 3059)” value [2] was greater than 128 µg/mL and the “MIC Enterococcus faecalis (GC 4552)” value [2] was greater than 128 µg/mL. The “MIC Enterococcus faecalis (GC 4553)” value [2] was greater than 128 µg/mL, the “MIC Enterococcus faecalis (GC 4554)” value [2] was greater than 128 µg/mL and the “MIC Enterococcus faecalis (GC 6189)” value [2] was greater than 128 µg/mL. For the same compound, the “MIC Enterococcus faecium (GC 2243)” value [2] was greater than 128 µg/mL, the “MIC Enterococcus faecium (GC 4556)” value [2] was greater than 128 µg/mL and the “MIC Enterococcus faecium (GC 4557)” value [2] was 64 µg/mL (≈ 44.6 µM). The “MIC Enterococcus faecalis (ATCC 29212)” value ([2]; strain ATCC 29212) was greater than 128 µg/mL, the “MIC Enterococcus faecium (GC 2243)” value ([2]; strain GC 2243) was greater than 128 µg/mL and the “MIC Enterococcus faecalis (GC 4552)” value ([2]; strain GC 4552) was greater than 128 µg/mL. The “MIC Enterococcus faecalis (GC 4553)” value ([2]; strain GC 4553) was greater than 128 µg/mL, the “MIC Enterococcus faecalis (GC 4554)” value ([2]; strain GC 4554) was greater than 128 µg/mL and the “MIC Enterococcus faecium (GC 4556)” value ([2]; strain GC 4556) was greater than 128 µg/mL. For the same compound, the “MIC Enterococcus faecium (GC 4557)” value ([2]; strain GC 4557) was 64 µg/mL (≈ 44.6 µM), the “MIC Enterococcus avium (GC 4558)” value ([2]; strain GC 4558) was greater than 128 µg/mL and the “MIC Enterococcus faecalis (GC 6189)” value ([2]; strain GC 6189) was greater than 128 µg/mL. For the same compound, the “MIC Enterococcus faecalis (GC 2242)” value ([2]; inoculum 5×10^5 CFU/mL, strain GC 2242) was greater than 128 µg/mL, the “MIC Enterococcus faecalis (GC 2691)” value ([2]; inoculum 5×10^5 CFU/mL, strain GC 2691) was greater than 128 µg/mL and the “MIC Enterococcus faecalis (GC 3059)” value ([2]; inoculum 5×10^5 CFU/mL, strain GC 3059) was greater than 128 µg/mL. The “MIC Streptococcus agalactiae (GC 4564)” value [3] was 128 µg/mL (≈ 89.3 µM), the “MIC Streptococcus pneumoniae (ATCC 6301)” value [3] was 64 µg/mL (≈ 44.6 µM) and the “MIC Streptococcus pneumoniae (GC 1894)” value [3] was 32 µg/mL (≈ 22.3 µM). The “MIC Streptococcus pneumoniae (GC 4565)” value [3] was 64 µg/mL (≈ 44.6 µM), the “MIC Streptococcus pyogenes (GC 4563)” value [3] was 128 µg/mL (≈ 89.3 µM) and the “MIC Streptococcus pneumoniae (ATCC 6301)” value ([3]; inoculum 5×10^5 CFU/mL, strain ATCC 6301) was 64 µg/mL (≈ 44.6 µM). For the same compound, the “MIC Streptococcus pneumoniae (GC 1894)” value ([3]; inoculum 5×10^5 CFU/mL, strain GC 1894) was 32 µg/mL (≈ 22.3 µM), the “MIC Streptococcus pyogenes (GC 4563)” value ([3]; inoculum 5×10^5 CFU/mL, strain GC 4563) was 128 µg/mL (≈ 89.3 µM) and the “MIC Streptococcus agalactiae (GC 4564)” value ([3]; inoculum 5×10^5 CFU/mL, strain GC 4564) was 128 µg/mL (≈ 89.3 µM). The “MIC Streptococcus pneumoniae (GC 4565)” value ([3]; inoculum 5×10^5 CFU/mL, strain GC 4565) was 64 µg/mL (≈ 44.6 µM), the “MIC Coagulase Negative Staphylococcus (GC 4547)” value [4] was 128 µg/mL (≈ 89.3 µM) and the “MIC Coagulase Negative Staphylococcus (GC 4548)” value [4] was 128 µg/mL (≈ 89.3 µM). For the same compound, the “MIC Coagulase Negative Staphylococcus (GC 4549)” value [4] was 64 µg/mL (≈ 44.6 µM), the “MIC Coagulase Negative Staphylococcus (GC 4551)” value [4] was 128 µg/mL (≈ 89.3 µM) and the “MIC Coagulase Negative Staphylococcus (GC 6257)” value [4] was 64 µg/mL (≈ 44.6 µM). For the same compound, the “MIC Staphylococcus aureus (ATCC 29213)” value [4] was 128 µg/mL (≈ 89.3 µM), the “MIC Staphylococcus aureus (GC 1131)” value [4] was greater than 128 µg/mL and the “MIC Staphylococcus aureus (GC 3051)” value [4] was 128 µg/mL (≈ 89.3 µM). The “MIC Staphylococcus aureus (GC 3053)” value [4] was greater than 128 µg/mL, the “MIC Staphylococcus aureus (GC 4541)” value [4] was 128 µg/mL (≈ 89.3 µM) and the “MIC Staphylococcus aureus (GC 4542)” value [4] was 128 µg/mL (≈ 89.3 µM). For the same compound, the “MIC Staphylococcus aureus (GC 4544)” value [4] was 128 µg/mL (≈ 89.3 µM), the “MIC Staphylococcus aureus (GC 4545)” value [4] was 128 µg/mL (≈ 89.3 µM) and the “MIC Staphylococcus aureus-SMITH (GC 4543)” value [4] was 128 µg/mL (≈ 89.3 µM). The “MIC Staphylococcus haemolyticus (GC 4546)” value [4] was 128 µg/mL (≈ 89.3 µM), the “MIC Staphylococcus aureus (ATCC 29213)” value ([4]; strain ATCC 29213) was 128 µg/mL (≈ 89.3 µM) and the “MIC Staphylococcus aureus (GC 1131)” value ([4]; strain GC 1131) was greater than 128 µg/mL. For the same compound, the “MIC Staphylococcus aureus (GC 3051)” value ([4]; strain GC 3051) was 128 µg/mL (≈ 89.3 µM), the “MIC Staphylococcus aureus (GC 3053)” value ([4]; strain GC 3053) was greater than 128 µg/mL and the “MIC Staphylococcus aureus (GC 4541)” value ([4]; strain GC 4541) was 128 µg/mL (≈ 89.3 µM). For the same compound, the “MIC Staphylococcus aureus (GC 4542)” value ([4]; strain GC 4542) was 128 µg/mL (≈ 89.3 µM), the “MIC Staphylococcus aureus-SMITH (GC 4543)” value ([4]; strain GC 4543) was 128 µg/mL (≈ 89.3 µM) and the “MIC Staphylococcus aureus (GC 4544)” value ([4]; strain GC 4544) was 128 µg/mL (≈ 89.3 µM). For the same compound, the “MIC Staphylococcus aureus (GC 4545)” value ([4]; strain GC 4545) was 128 µg/mL (≈ 89.3 µM), the “MIC Staphylococcus haemolyticus (GC 4546)” value ([4]; strain GC 4546) was 128 µg/mL (≈ 89.3 µM) and the “MIC Coagulase Negative Staphylococcus (GC 4547)” value ([4]; strain GC 4547) was 128 µg/mL (≈ 89.3 µM). The “MIC Coagulase Negative Staphylococcus (GC 4548)” value ([4]; strain GC 4548) was 128 µg/mL (≈ 89.3 µM), the “MIC Coagulase Negative Staphylococcus (GC 4549)” value ([4]; strain GC 4549) was 64 µg/mL (≈ 44.6 µM) and the “MIC Coagulase Negative Staphylococcus (GC 4551)” value ([4]; strain GC 4551) was 128 µg/mL (≈ 89.3 µM). For the same compound, the “MIC Coagulase Negative Staphylococcus (GC 6257)” value ([4]; strain GC 6257) was 64 µg/mL (≈ 44.6 µM).

Source: patent publication US6914045B2, “Glycopeptide antibiotics” (Wyeth Holdings Corporation, priority 2001, dated 2005)
